This test concerns the target human GPR10 (Homo sapiens (Human), UniProt P49683). The test is described as follows: Inhibitory activity on binding of [3H]-PrRP to GPR10 (HEK 293 cell membrane fraction). Particulars: [3H]-PrRP 1 nM, human GPR10-expressing HEK 293 cell membrane fraction; Ki from IC50 by Cheng-Prussoff formula. How it is done:
Inhibitory Activity on Binding of [^3H]-PrRP to GPR10
Human GPR10 receptor expressing human embryonic kidney cells, HEK 293 cells, were cultured in Dulbecco's Modified Eagle's medium supplemented with 10% fetal bovine serum and 1% penicilline-streptmycin at 37° C., in 5% carbon dioxide gas conditions. The medium was removed and the cells were recovered in a phosphate buffer to prepare a cell suspension. The cell suspension was homogenated on ice by an ultrasonic cell homogenizer (Microson™ type XL200) and centrifuged at 40,000 g for 10 minutes at 4° C. After the supernatant was discarded, Buffer A (20 mM HEPES, 10 mM EDTA, 1 μl/ml protease inhibiting cocktail, pH 7.4) was added to the pellet. The pellet was suspended by the ultrasonic cell homogenizer, then the suspension was centrifuged at 40,000 g, for 10 minutes at 4° C. After this operation was repeated once again, the supernatant was discarded, Buffer B (20 mM HEPES, 0.1 mM EDTA, pH 7.4) was added to the pellet, and the pellet was suspended by the ultrasonic homogenizer. This was stored at a freezer of −80° C. as a cell membrane fraction until use in a binding test.
To each well of a 96-well plate, 150 μl of assay buffer (20 mM HEPES, 10 mM EDTA, 1 μl/ml protease inhibiting agent cocktail, pH 7.4), 20 μl of cell membrane fraction, 10 μl of test compound and [^3H]-PrRP (final concentration 1 nM) were added and incubated at room temperature for 90 minutes. After completion of the reaction, using a cell harvester, the cell-membrane fraction sample product was filtered under aspiration by a glass fiber filter plate (Unifilter; GF/B) previously treated with 0.5% polyethylene imine. The filter was washed with a 50 mM Tris hydrochloric acid buffer (pH 7.4) three times. After the filter was dried in a dryer (50° C.) for about 3 hours, 40 μl of liquid scintillation cocktail (MicroScint-O) was added to each well and radio activity was measured by a scintillation counter (Packard Topcount). The radio activity in the presence of an excessive amount of non-labeled PrRP (final concentration: 100 nM) was regarded as non-specific binding.
The binding inhibition rate was calculated based on calculating formula: 100−(radio activity when a compound is added−radio activity of non-specific binding)÷(radio activity when a solvent is added−radio activity of non-specific binding)×100.
An IC50 value was calculated based on the concentration dependent reaction using a non-linear analysis program and a Ki value was calculated using Cheng-Prussoff formula.

The structures appear in SMILES notation. Where a name gives a salt, the structure may show the parent alone.

human GPR10, sequence (P49683 whole entry): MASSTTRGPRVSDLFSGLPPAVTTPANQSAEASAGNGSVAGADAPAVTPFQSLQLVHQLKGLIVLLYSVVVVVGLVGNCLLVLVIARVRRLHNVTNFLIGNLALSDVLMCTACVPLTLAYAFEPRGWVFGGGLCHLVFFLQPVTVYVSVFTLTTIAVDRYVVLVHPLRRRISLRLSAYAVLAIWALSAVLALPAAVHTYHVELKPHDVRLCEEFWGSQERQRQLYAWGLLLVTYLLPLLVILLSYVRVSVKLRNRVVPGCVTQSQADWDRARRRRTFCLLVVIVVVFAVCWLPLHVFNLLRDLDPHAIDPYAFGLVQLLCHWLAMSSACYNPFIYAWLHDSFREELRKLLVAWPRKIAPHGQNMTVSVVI

Turning to `COn1c(N[C@@H](C)c2ccc(C(F)(F)F)cc2)nc2c(c1=O)CN(C(=O)c1ccc(Cl)o1)CC2` [Example 2454, 6-(5-chloro-furan-2-carbonyl)-3-methoxy-2-[(S)-1-(4-trifluoromethylphenyl)ethylamino]-5,6,7,8-tetrahydro-3H-pyrido[4,3-d]pyrimidin-4-one], the Ki was 48 nM.

In the case of `C=Cc1ccc(C(=O)N2CCc3nc(N[C@@H](C)c4ccc(C(F)(F)F)cc4)n(OC)c(=O)c3C2)cc1` [Example 2456, 3-methoxy-2-[(S)-1-(4-trifluoromethylphenyl)ethylamino]-6-(4-vinylbenzoyl)-5,6,7,8-tetrahydro-3H-pyrido[4,3-d]pyrimidin-4-one], the inhibitory constant (Ki) is 6 nM.

`COn1c(N[C@@H](C)c2ccc(C(F)(F)F)cc2)nc2c(c1=O)CN(C(=O)c1ccc(C)c(F)c1)CC2` [Example 2457, 6-(3-fluoro-4-methylbenzoyl)-3-methoxy-2-[(S)-1-(4-trifluoromethylphenyl)ethylamino]-5,6,7,8-tetrahydro-3H-pyrido[4,3-d]pyrimidin-4-one] showed a Ki of 8 nM.

Take `C#CCCn1c(N[C@@H](C)c2ccc(C(F)(F)F)cc2)nc2c(c1=O)CN(C(=O)c1nc3ccccc3[nH]1)CC2` [Example 2458, 6-(1H-benzoimidazole-2-carbonyl)-3-(3-butynyl)-2-[(S)-1-(4-trifluoromethylphenyl)ethylamino]-5,6,7,8-tetrahydro-3H-pyrido[4,3-d]pyrimidin-4-one]: the affinity, expressed as Ki, was 245 nM.

With `COn1c(N[C@@H](C)c2ccc(C(F)(F)F)cc2)nc2c(c1=O)CN(C(=O)c1ccc3c(c1)OCCO3)CC2` [Example 2459, 6-(2,3-dihydrobenzo[1,4]dioxine-6-carbonyl)-3-methoxy-2-[(S)-1-(4-trifluoromethylphenyl)ethylamino]-5,6,7,8-tetrahydro-3H-pyrido[4,3-d]pyrimidin-4-one], the inhibitory constant (Ki) stood at 10 nM.

For `COc1ccc2oc(C(=O)N3CCc4nc(N[C@@H](C)c5ccc(C(F)(F)F)cc5)n(OC)c(=O)c4C3)cc2c1` [Example 2460, 3-methoxy-6-(5-methoxybenzofuran-2-carbonyl)-2-[(S)-1-(4-trifluoromethylphenyl)ethylamino]-5,6,7,8-tetrahydro-3H-pyrido[4,3-d]pyrimidin-4-one], the affinity, expressed as Ki, was 14 nM.

Compound `COn1c(NCc2ccc(Cl)cc2)nc2c(c1=O)CN(C(=O)c1ccc(Cl)cc1)CC2` [Example 2462, 6-(4-chlorobenzoyl)-2-(4-chlorobenzylamino)-3-methoxy-5,6,7,8-tetrahydro-3H-pyrido[4,3-d]pyrimidin-4-one hydrochloride] yielded a Ki of 98 nM.

`COn1c(N[C@@H](C)c2ccc(C(F)(F)F)cc2)nc2c(c1=O)CN(C(=O)c1cc(-c3cccs3)n(C)n1)CC2` [Example 2464, 3-methoxy-6-(1-methyl-5-thiophen-2-yl-1H-pyrazole-3-carbonyl)-2-[(S)-1-(4-trifluoromethylphenyl)ethylamino]-5,6,7,8-tetrahydro-3H-pyrido[4,3-d]pyrimidin-4-one] displayed an inhibition constant Ki of 20 nM.

As to `COn1c(N[C@@H](C)c2ccc(C(F)(F)F)cc2)nc2c(c1=O)CN(C(=O)c1cc3occc3n1C)CC2` [Example 2465, 3-methoxy-6-(4-methyl-4H-furo[3,2-b]pyrrole-5-carbonyl)-2-[(S)-1-(4-trifluoromethylphenyl)ethylamino]-5,6,7,8-tetrahydro-3H-pyrido[4,3-d]pyrimidin-4-one], the inhibition constant (Ki) turned out to be 10 nM.

The compound `COn1c(N[C@@H](C)c2ccc(C(F)(F)F)cc2)nc2c(c1=O)CN(C(=O)COc1ccc(C#N)cc1)CC2` [Example 2468, 4-(2-{3-methoxy-4-oxo-2-[(S)-1-(4-trifluoromethylphenyl)ethylamino]-3,5,7,8-tetrahydro-4H-pyrido[4,3-d]pyrimidin-6-yl}-2-oxo-ethoxy)benzonitrile] yielded a Ki of 6 nM.

A word on the Ki: it is the dissociation constant of the complex between target and ligand, obtained from inhibition or displacement. A lower Ki goes with higher affinity.

The record behind these values is patent US9206173B2, “Heterocyclic compounds for the treatment of stress-related conditions” (OTSUKA PHARMACEUTICAL CO., LTD., priority 2009, dated 2015).
